# Experimental data as given in ChEMBL document CHEMBL1201862, “PubChem BioAssay data set” (2004).
# Where “and” joins values, the source holds several entries; their conditions need not be identical. Identical values can stand only once. Calls of active or inactive are those of the source.
# Key:
# [1] = tested on: Vero; experiment: Vero 76 cell viability after compound exposure – Vero 76 cells, synthesized analogs, cytotoxicity control for West Nile virus antiviral project, SAR follow-up (AID 2414); type: functional, Chlorocebus sabaeus
# [2] = tested on: Vero; experiment: Vero cell viability after compound exposure – synthesized analogs, set II, cytotoxicity control for West Nile virus antiviral project, SAR follow-up (AID 2402); type: functional, Chlorocebus sabaeus
# [3] = tested on: Vero; experiment: host cell viability loss, Vero E6 – synthesized analogs, cytotoxicity control for West Nile virus antiviral project, SAR follow-up (AID 2244); type: functional; settings: Chlorocebus sabaeus
# [4] = A Cell Based Assay for the Identification of Probe candidate Compounds with Anti- Venezuelan Equine Encephalitis virus. [Related pubchem assays: 2409, 2419, 1621, 2238, 2405, 2024, 2065, 2402, 2414, 1635, 1650, 2244 ]; type: functional
# [5] = tested on: Vero; experiment: antiviral protection of cells from WNV – synthesized analogs, SAR follow-up (AID 2238); type: functional, cell-based; settings: Chlorocebus sabaeus
# [6] = tested on: Vero; experiment: antiviral activity against WNV, CPE read-out – cell-based (AID 2419); type: functional; settings: Chlorocebus sabaeus
# [7] = tested on: Vero; experiment: inhibition of WNV-induced cytopathic effect – cell-based, CPE readout (AID 1621); type: functional; settings: Chlorocebus sabaeus
# [8] = target: T1, Tyrosine-protein phosphatase non-receptor type 7 (Homo sapiens, UniProt P35236); experiment: Dose Response confirmation of compounds that inhibit HePTP. [Related pubchem assays (depositor defined):AID1059, AID1661, AID2085]; type: functional
# T1 sequence (P35236 whole entry): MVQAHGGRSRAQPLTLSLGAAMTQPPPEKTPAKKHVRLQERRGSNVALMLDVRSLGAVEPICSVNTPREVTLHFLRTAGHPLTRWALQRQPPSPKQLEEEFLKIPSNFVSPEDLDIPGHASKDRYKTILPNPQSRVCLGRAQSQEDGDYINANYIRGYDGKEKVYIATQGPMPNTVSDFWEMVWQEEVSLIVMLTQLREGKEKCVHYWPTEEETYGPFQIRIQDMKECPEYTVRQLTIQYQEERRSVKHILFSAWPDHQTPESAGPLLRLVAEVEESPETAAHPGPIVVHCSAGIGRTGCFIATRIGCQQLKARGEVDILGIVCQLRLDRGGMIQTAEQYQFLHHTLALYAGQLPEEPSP
# [9] = target: Dual specificity protein phosphatase 3 (Homo sapiens, UniProt P51452); experiment: Dose Response Confirmation of compounds that inhibit VHR1 in Fluorescent Assay. [Related pubchem assays (depositor defined):AID1661, AID1878]; type: functional
# Sequence of Dual specificity protein phosphatase 3 (P51452 whole entry): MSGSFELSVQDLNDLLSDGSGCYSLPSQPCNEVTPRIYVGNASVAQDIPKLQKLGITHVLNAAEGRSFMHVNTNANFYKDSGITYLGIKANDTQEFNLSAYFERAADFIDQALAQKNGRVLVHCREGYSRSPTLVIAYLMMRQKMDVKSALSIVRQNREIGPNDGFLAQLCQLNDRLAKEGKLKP
# [10] = target: 26S proteasome non-ATPase regulatory subunit 14 (Homo sapiens, UniProt O00487); experiment: inhibition of proteasome subunit RPN11 – biochemical, fluorescence polarization, uHTS hits, confirmation (AID 602368); type: functional
# Sequence of 26S proteasome non-ATPase regulatory subunit 14 (O00487 whole entry): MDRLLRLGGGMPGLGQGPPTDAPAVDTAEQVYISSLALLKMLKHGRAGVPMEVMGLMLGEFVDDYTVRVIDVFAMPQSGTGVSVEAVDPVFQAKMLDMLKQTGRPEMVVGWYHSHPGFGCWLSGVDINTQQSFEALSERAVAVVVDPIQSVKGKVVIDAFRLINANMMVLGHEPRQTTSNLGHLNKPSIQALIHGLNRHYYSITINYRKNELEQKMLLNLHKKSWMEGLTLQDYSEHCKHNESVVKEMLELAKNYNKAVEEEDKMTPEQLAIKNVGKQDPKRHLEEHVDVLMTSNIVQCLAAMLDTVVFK
# [11] = target: 72 kDa type IV collagenase (Homo sapiens, UniProt P08253); experiment: Dose Response validation of uHTS RPN11 inhibitor hits using a MMP-2 Fluorescence assay.; type: functional
# Sequence of 72 kDa type IV collagenase (P08253 whole entry): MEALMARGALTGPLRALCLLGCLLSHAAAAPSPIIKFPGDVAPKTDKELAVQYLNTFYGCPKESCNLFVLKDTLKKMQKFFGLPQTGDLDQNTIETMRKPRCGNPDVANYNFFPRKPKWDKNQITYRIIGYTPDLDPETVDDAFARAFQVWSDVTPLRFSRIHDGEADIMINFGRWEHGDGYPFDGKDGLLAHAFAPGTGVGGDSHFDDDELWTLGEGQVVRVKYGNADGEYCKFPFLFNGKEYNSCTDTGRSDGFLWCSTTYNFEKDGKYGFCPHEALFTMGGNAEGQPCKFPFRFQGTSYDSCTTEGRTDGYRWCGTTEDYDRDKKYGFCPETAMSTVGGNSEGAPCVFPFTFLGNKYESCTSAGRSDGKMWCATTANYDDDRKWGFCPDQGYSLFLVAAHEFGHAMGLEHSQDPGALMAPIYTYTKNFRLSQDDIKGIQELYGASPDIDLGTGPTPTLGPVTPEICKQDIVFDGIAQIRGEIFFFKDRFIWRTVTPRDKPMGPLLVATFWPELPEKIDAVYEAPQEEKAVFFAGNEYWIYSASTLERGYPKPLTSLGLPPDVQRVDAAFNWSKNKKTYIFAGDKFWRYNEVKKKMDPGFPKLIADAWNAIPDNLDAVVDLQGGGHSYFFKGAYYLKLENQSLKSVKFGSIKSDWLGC
# [12] = target: Prothrombin (Bos taurus, UniProt P00735); experiment: thrombin protease inhibitors – biochemical, fluorescence polarization, uHTS hits, dose response (AID 602369); type: functional
# [13] = target: T2, Eukaryotic translation initiation factor 4H (Homo sapiens, UniProt Q15056); experiment: eIF4H binding inhibition – biochemical, uHTS, fluorescence polarization, translation initiation inhibitor project, primary screen (AID 2012)
# [14] = target: T3, Polyadenylate-binding protein 1 (Homo sapiens, UniProt P11940); experiment: blockers of PABP interaction with poly(A) – biochemical, fluorescence polarization, […] (AID 2014)
# T3 sequence (P11940 whole entry): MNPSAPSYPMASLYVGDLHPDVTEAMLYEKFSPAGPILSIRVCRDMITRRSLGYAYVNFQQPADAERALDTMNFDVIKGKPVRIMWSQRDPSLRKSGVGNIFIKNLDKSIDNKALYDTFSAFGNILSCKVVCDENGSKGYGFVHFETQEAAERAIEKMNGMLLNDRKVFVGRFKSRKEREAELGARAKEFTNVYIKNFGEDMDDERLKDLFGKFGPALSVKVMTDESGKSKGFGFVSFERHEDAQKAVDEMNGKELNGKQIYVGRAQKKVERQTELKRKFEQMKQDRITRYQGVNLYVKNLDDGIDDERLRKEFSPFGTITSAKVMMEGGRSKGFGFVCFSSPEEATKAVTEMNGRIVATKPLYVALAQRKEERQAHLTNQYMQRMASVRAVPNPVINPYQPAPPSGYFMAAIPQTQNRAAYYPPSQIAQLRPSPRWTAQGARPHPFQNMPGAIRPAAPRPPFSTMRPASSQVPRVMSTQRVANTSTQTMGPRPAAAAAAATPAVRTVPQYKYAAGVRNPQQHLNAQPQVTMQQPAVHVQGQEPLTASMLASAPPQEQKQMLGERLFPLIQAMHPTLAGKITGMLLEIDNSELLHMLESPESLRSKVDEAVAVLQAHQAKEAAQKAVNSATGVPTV
# [15] = target: T2, Eukaryotic translation initiation factor 4H; experiment: inhibitors of translation initiation factor eIF4H – SAR follow-up (AID 435011); type: functional
# [16] = target: T3, Polyadenylate-binding protein 1; experiment: PABP inhibition in translation initiation, SAR follow-up (AID 435018); type: functional
# [17] = target: T4, E3 ubiquitin-protein ligase XIAP (Homo sapiens, UniProt P98170); experiment: Counter Screen using XIAP-Bir3 for Chemical Antagonists of Bir1/2 domains of IAP-family anti-apoptotic proteins. [Related pubchem assays (depositor defined):AID1018, AID1449, AID1514, AID1638, AID1749, AID1750, AID488957, AID488963]
# T4 sequence (P98170 whole entry): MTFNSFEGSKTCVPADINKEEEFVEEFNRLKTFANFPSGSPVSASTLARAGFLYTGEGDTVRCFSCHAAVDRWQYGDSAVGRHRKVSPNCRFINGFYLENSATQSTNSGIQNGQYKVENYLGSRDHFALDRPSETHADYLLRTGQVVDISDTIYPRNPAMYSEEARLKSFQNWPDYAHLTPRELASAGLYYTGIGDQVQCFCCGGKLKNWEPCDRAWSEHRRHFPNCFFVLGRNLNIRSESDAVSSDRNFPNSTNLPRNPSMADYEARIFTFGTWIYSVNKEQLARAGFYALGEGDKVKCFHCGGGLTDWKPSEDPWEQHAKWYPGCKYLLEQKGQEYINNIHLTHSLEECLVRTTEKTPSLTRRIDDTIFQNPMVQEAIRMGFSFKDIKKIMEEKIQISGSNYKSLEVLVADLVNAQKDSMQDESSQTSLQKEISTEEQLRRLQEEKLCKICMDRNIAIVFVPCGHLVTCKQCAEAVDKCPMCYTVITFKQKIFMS
# [18] = target: T4, E3 ubiquitin-protein ligase XIAP; experiment: small molecules displacing peptide from XIAP – biochemical, IAP family, fluorescence polarization (AID 1018); type: functional
smiles,measurement,setting,value
Brc1ccc2c(c1)CN1CCCC1=N2,CC50,[1],124 µM (active)
same,CC50,"[1]; Chlorocebus sabaeus, Vero",> 66.6 µM (active)
same,CC50,[2],197 µM (active)
same,CC50,"[2]; Chlorocebus sabaeus, Vero",> 100 µM (active)
same,CC50,[3],> 40 µM (active)
same,IC50,[4],> 66.6 µM (active) and 60.3 µM (active)
same,IC50,[5],38.9 µM (active)
same,IC50,[6],16.8 µM (active)
same,IC50,[7],19.7 µM (active)
Cc1ccc(-c2nnn3c2nc(NCCc2ccc(S(N)(=O)=O)cc2)c2ccccc23)cc1,IC50,[8],0.819 µM (active)
same,IC50,[9],0.783 µM (active)
same,IC50,[10],17.7 µM (active)
same,IC50,[11],> 100 µM (inactive)
same,IC50,[12],77.4 µM (active)
COc1ccc(OC)c(NC(=O)CSc2ccc(-c3ccco3)nn2)c1,IC50,[13],16.1 µM (active)
same,IC50,[14],93.4 µM (active)
same,IC50,[15],48.7 µM (active)
same,IC50,[16],> 100 µM (inactive)
CCOCCCNC(=O)c1cn(CC(C)C)c(=O)c2cc(OC)c(OC)cc12,IC50,[17],> 100 µM (inactive)
same,IC50,[18],> 100 µM (not active)
